In patent US7253165B2, “Benzisoxazolyl-, pyridoisoxazolyl-and benzthienyl-phenoxy derivatives useful as D4 antagonists” (Aventis Pharmaceuticals Inc., priority 1999, dated 2007):

Assays:
[1] = target: T1, human D4 receptor (D4.2 sub-type) (Homo sapiens, UniProt P21917, DEL265-296); test: D4 receptor binding assay, displacement of 3H-spiperone; conditions: 3H-spiperone 0.25 nM; for Ki: membranes of HEK cells transfected with human D4.2, * = HCl salt, read-out: D4 RBA Ki; for D4 RBA % Inhibition (@ 1 μM): 1 μM test compound
T1 sequence (P21917 with tags, fused parts or gaps DEL265-296): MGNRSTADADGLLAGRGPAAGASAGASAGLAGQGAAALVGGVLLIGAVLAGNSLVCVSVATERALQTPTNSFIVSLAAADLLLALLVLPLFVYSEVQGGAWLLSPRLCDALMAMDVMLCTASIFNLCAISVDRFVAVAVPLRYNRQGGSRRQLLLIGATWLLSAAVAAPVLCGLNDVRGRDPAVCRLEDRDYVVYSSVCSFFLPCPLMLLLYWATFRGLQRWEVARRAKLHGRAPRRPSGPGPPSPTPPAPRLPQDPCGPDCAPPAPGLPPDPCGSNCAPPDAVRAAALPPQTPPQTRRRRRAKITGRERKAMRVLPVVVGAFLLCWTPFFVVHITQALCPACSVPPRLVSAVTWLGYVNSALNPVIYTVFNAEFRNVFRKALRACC
Description: D4 receptor-binding affinities of the compounds were evaluated according to their ability to reduce binding of ^3H-spiperone as compared to the reference compound clozapine. The potency of the test compound to reduce ^3H-spiperone binding directly correlated to its binding affinity for the receptor.
[…] (human embryonic kidney) cells stably transfected with human D4 receptor (D4.2 sub-type) were grown in NUNC cell factories for 5 days (75% confluency) without a media change and removed with versene (approximately 19 mg of cells per cell factory tray). The cells were then centrifuged in a Sorval centrifuge for 10 min, 5000 rpm (GS3 rotor) and the pellets quickly frozen in liquid nitrogen and stored at −80° C. until used in binding assay. When used in the assay, cells were thawed on ice for 20 min and then 10 mL of incubation buffer (50 mM Tris, 1 mM EDTA, 4 mM MgCl2, 5 mM KCl, 1.5 mM CaCl2, 120 mM NaCl, pH 7.4) was added. The cells were then vortexed to resuspend pellet and homogenized with a Kinematica, CH-6010 Kriens-LU, homogenizer for 15 seconds at setting 7. Concentration of receptor protein was determined using the Pierce BCA assay.
The incubation was started by the addition of 100 μl (50 μg protein) membrane homogenate to a solution of 300 μl incubation buffer and 100 μl (0.25 nM final conc.) ^3H-spiperone (90 Ci/mmol, Amersham, diluted in borosilicate glass vial) in 96-well polypropylene plates (1 ML per well). The plates were vortexed and incubated at room temperature for 90 minutes. The binding reaction was stopped by filtering using a Packard Harvester. The samples were filtered under vacuum over glass fibre filter plates (Whatman GF/B) presoaked for 2 hours in 0.3% polyethylenimine (PEI) in 50 mM Tris buffer (pH 7.4). The filters were then washed 6 times with 7 mL ice cold 50 mM Tris buffer (pH 7.4). The filter plates were dried overnight and 35 μl of Microscint-O (Packard) was added. The plates were sealed and counted in the Packard Top Count (3 minutes per well).
The incubation was started by the addition of 100 μl (50 μg protein) membrane homogenate to a solution of 200 μl incubation buffer, 100 μl ^3H-spiperone (90 Ci/mmol, Amersham, diluted in borosilicate glass vial to 0.25 nM final conc.) and 100 μl (30 μM final conc.) of fresh dopamine (Research Biochemicals Inc., light protected and dissolved in incubation buffer) in 96-well polypropylene plates (1 mL per well). The plates were vortexed and incubated at room temperature for 90 minutes at which time the binding reaction was stopped by filtering. The filters were washed and counted using the same procedure as in the total binding assay described above to give the non-specific binding value (NSB).
The incubation was started by the addition, in 96-well polypropylene plates (1 mL per well), of 100 μl (50 μg protein) membrane homogenate to a solution of 200 μl incubation buffer, 100 μl (0.25 nM final-conc.) ^3H-spiperone (90 Ci/mmol, Amersham, diluted in borosilicate glass vial) and 100 μl of test compound that was prepared from 1 mM stock dissolved in DMSO and stored at −20° C. in polypropylene cryogenic storage vials until dilution in incubation buffer in 96-well polypropylene plates. The plates were vortexed and incubated at room temperature for 90 minutes at which time the binding reaction was stopped by filtering. The filters were washed and counted using the same procedure as in the total binding assay described above to give the displacement binding value (BD).
The test compounds were initially assayed at 1 and 0.1 μM and then at a range of concentrations chosen such that the middle dose would cause about 50% inhibition of ^3H-spiperone binding. Specific binding in the absence of test compound (B0) was the difference of total binding (BT) minus non-specific binding (NSB) and similarly specific binding (in the presence of test compound) (B) was the difference of displacement binding (BD) minus non-specific binding (NSB). […]

[2] = system: MK-801 induced stereotypy (locomotion and falling behavior) in CD-1 or C57 male mice; test: MK-801 Stereotypy in Mice; conditions: In Vivo Method PO, MK-801 0.2 mg/kg; for inhibition in vivo at 20 mg/kg: Mus musculus, read-out: Antag. of MK 801 Stereotypy % Inhib. @ 20 mg/kg
Description: Mk-801 dose-dependently induces characteristic stereotypy marked by locomotion and falling behavior. This MK-801 induced behavior can be antagonized by novel neuroleptic agents. This assay can also assess time course effects following drug administration.
CD-1 or C57 male mice are individually placed in activity boxes (8 mice/drug) and allowed to acclimate for 60 minutes. The mice are then administered test compounds either i.p., s.c., or p.o., at 15, 30, or 60 minutes prior to MK-801 (0.2 mg/kg) administration. Mice are observed for the presence of locomotion and falling behaviors 15 minutes following MK-801. For the duration of action studies the test compounds are administered i.p., s.c., or p.o., at 30, 60, 120, 180, and 240 minutes prior to MK-801 administration.

| Ki [1] [nM] | Compound | also measured |
| --- | --- | --- |
| 42 | CN(CCc1ccccc1)C[C@@H](O)COc1ccc(-c2noc3cc(F)ccc23)cc1 [Example 6] | – |
| 9 | O[C@@H](COc1ccc(-c2noc3cc(F)ccc23)cc1)CN1CCN(c2ccccn2)CC1 [Example 8] | inhibition in vivo at 20 mg/kg [2]: 37.5% |
| 34 | CCCC1CCN(CCOc2ccc(-c3noc4cc(F)ccc34)cc2)CC1 [Example 146] | – |
| 7.1 | Fc1ccc2c(-c3ccc(OCCN4CCC5(CC4)OCCO5)cc3)noc2c1 [Example 152] | – |
| 3.8 | CC1CCN(CCCOc2ccc(-c3noc4cc(F)ccc34)cc2)CC1 [Example 153] | inhibition in vivo at 20 mg/kg [2]: 75% |
| 11.2 | CCCC1CCN(CCCOc2ccc(-c3noc4cc(F)ccc34)cc2)CC1 [Example 154] | inhibition in vivo at 20 mg/kg [2]: 25% |
| 3.88 | Fc1ccc2c(-c3ccc(OCCCN4CCCCCC4)cc3)noc2c1 [Example 156] | inhibition in vivo at 20 mg/kg [2]: 50% |
| 8.35 | Fc1ccc2c(-c3ccc(OCCCN4CCCCCCC4)cc3)noc2c1 [Example 157] | inhibition in vivo at 20 mg/kg [2]: 50% |
| 8.42 | Fc1ccc2c(-c3ccc(OCCCNCC4CCCCC4)cc3)noc2c1 [Example 158] | inhibition in vivo at 20 mg/kg [2]: 37.5% |

The next lines start with the molecule.

| Compound | Ki [1] [nM] | also measured |
| --- | --- | --- |
| CN(CCc1ccccc1)C[C@@H](O)COc1ccc(-c2noc3cc(F)ccc23)cc1 [Example 27, (R)-1-[4-(6-fluoro-benzo[d]isoxazol-3-yl)-phenoxy]-3-(methyl-phenethyl-amino)-propan-2-ol] | – | D4 RBA % Inhibition (@ 1 μM) [1]: 66% |
| O[C@@H](COc1ccc(-c2noc3cc(F)ccc23)cc1)CN1CCN(c2ccccn2)CC1 [Example 29, (R)-1-[4-(6-fluoro-benzo[d]isoxazol-3-yl)-phenoxy]-3-(4-pyridin-2-yl-piperazin-1-yl)-propan-2-ol] | – | D4 RBA % Inhibition (@ 1 μM) [1]: 41% |
| O[C@@H](COc1ccc(-c2noc3cc(F)ccc23)cc1)CN1CCC(c2noc3cc(F)ccc23)CC1 [Example 34, (R)-1-[4-(6-fluoro-benzo[d]isoxazol-3-yl)-phenoxy]-3-[4-(6-fluoro-benzo[d]isoxazol-3-yl)-piperidin-1-yl]-propan-2-ol] | – | D4 RBA % Inhibition (@ 1 μM) [1]: 46% |
| O[C@@H](COc1ccc(-c2noc3cc(F)ccc23)cc1)CN1CCC(O)(c2ccccc2)CC1 [Example 38, (R)-1-{3-[4-(6-fluoro-benzo[d]isoxazol-3-yl)-phenoxy]-2-hydroxy-propyl}-4-phenyl-piperidin-4-ol] | – | D4 RBA % Inhibition (@ 1 μM) [1]: 54% |
| O[C@@H](COc1cccc(-c2noc3cc(F)ccc23)c1)CN1CCN(c2ncccn2)CC1 [Example 69, (R)-1-[3-(6-fluoro-benzo[d]isoxazol-3-yl)-phenoxy]-3-(4-pyrimidin-2-yl-piperazin-1-yl)-propan-2-ol] | 14 | – |
| O[C@H](CNC1CCc2ccccc21)COc1ccc(-c2noc3cc(F)ccc23)cc1 (stereo partly drawn) [Example 72, (R)-1-[4-(6-fluoro-benzo[d]isoxazol-3-yl)-phenoxy]-3-(indan-1-ylamino)-propan-2-ol] | 30 | – |
| O[C@H](CNCc1cccs1)COc1ccc(-c2noc3cc(F)ccc23)cc1 [Example 73, (R)-1-[4-(6-fluoro-benzo[d]isoxazol-3-yl)-phenoxy]-3-[(thiophen-2-ylmethyl)-amino]-propan-2-ol] | 13 | – |
| COc1cccc(CNC[C@@H](O)COc2ccc(-c3noc4cc(F)ccc34)cc2)c1 [Example 80, (R)-1-[4-(6-fluoro-benzo[d]isoxazol-3-yl)-phenoxy]-3-(3-methoxy-benzylamino)-propan-2-ol] | – | D4 RBA % Inhibition (@ 1 μM) [1]: 76% |
| O[C@H](CNC1Cc2ccccc2C1)COc1ccc(-c2noc3cc(F)ccc23)cc1 [Example 89, (R)-1-[4-(6-fluoro-benzo[d]isoxazol-3-yl)-phenoxy]-3-(indan-2-ylamino)-propan-2-ol] | 1.3 | Antag. of MK 801 Stereotypy % Inhib. @ 20 mg/kg [2]: 25% |
| O[C@@H](COc1ccc(-c2noc3cc(F)ccc23)cc1)CN1CCC(Oc2cccc(Cl)c2)CC1 [Example 90, (R)-1-[4-(3-chloro-phenoxy)-piperidin-1-yl]-3-[4-(6-fluoro-benzo[d]isoxazol-3-yl)-phenoxy]-propan-2-ol] | 27 | – |
| O[C@H](CNCc1ccc(F)cc1)COc1ccc(-c2csc3ccccc23)cc1 [Example 96, (R)-1-(4-benzo[b]thiophen-3-yl-phenoxy)-3-(4-fluoro-benzylamino)-propan-2-ol] | 26 | – |
| O[C@@H](COc1cccc(-c2noc3ncccc23)c1)CN1CCC(Oc2cccc(Cl)c2)CC1 [Example 102, (R)-1-[4-(3-chloro-phenoxy)-piperidin-1-yl]-3-(3-isoxazolo[5,4-b]pyridin-3-yl-phenoxy)-propan-2-ol] | – | D4 RBA % Inhibition (@ 1 μM) [1]: 59% |
| O[C@@H](COc1cccc(-c2noc3ncccc23)c1)CN1CCN(c2ncccn2)CC1 [Example 106, (R)-1-(3-isoxazolo[5,4-b]pyridin-3-yl-phenoxy)-3-(4-pyrimidin-2-yl-piperazin-1-yl)-propan-2-ol] | 8.4 | – |
